Counter-ions that a name gives are not always drawn.

The data set in a line: in vitro. To be noted: human, hek293t cells.
With `COc1cccc(NC(=O)C(C#N)=Cc2ccc([N+](=O)[O-])o2)c1` [8-A19, 2-cyano-N-(3-methoxyphenyl)-3-(5-nitrofuran-2-yl)prop-2-enamide], the viability at 48 h, 25 µM stood at 72.4%.

As for `COc1ccc(NC(C)=O)cc1NC(=O)C(C)Cl` (centres unmarked) [4-M08, 2-chloro-N-(5-acetamido-2-methoxyphenyl)propanamide], the viability at 48 h, 25 µM is 84.8%. On to `Cc1ccc(C=C(C#N)C(=O)Nc2ccc(N3CCOCC3)cc2)s1` [8-A06, 2-cyano-3-(5-methylthiophen-2-yl)-N-[4-(morpholin-4-yl)phenyl]prop-2-enamide], for which the viability at 48 h, 25 µM was found to be 76.2%. As to `COc1ccc(C2=NN(C(=O)CCl)C(c3ccco3)C2)cc1` (centres unmarked) [4-N19, 2-chloro-1-[5-(furan-2-yl)-3-(4-methoxyphenyl)-4,5-dihydro-1H-pyrazol-1-yl]ethan-1-one], the viability at 48 h, 25 µM amounted to 0.0172%.

On to `C=CC(=O)N1CCC(C(=O)Nc2cc(OCC)ccc2Cl)CC1` [1-I20, N-(2-chloro-5-ethoxyphenyl)-1-(prop-2-enoyl)piperidine-4-carboxamide], for which the viability at 48 h, 25 µM came to 122%. Take `CCN(CC)S(=O)(=O)c1cccc(NC(=O)CCl)c1` [4-M07, 2-chloro-N-[3-(diethylsulfamoyl)phenyl]acetamide]: the viability at 48 h, 25 µM is 1.11%.

For `C=CC(=O)N(C)CC(=O)NCc1nc2cc(C)ccc2n1C` [2-B14, N-({[(1,5-dimethyl-1H-1,3-benzodiazol-2-yl)methyl]carbamoyl}methyl)-N-methylprop-2-enamide], the viability at 48 h, 25 µM was 37.9%. Consider `Cn1cc(C=C(C#N)C(=O)NCc2ccccc2)cn1` [8-J10, N-benzyl-2-cyano-3-(1-methyl-1H-pyrazol-4-yl)prop-2-enamide], for which the viability at 48 h, 25 µM worked out at 111%. With `C=CC(=O)N(C)CCCn1c(=O)c(C)nc2ccccc21` [1-I08, N-methyl-N-[3-(3-methyl-2-oxo-1,2-dihydroquinoxalin-1-yl)propyl]prop-2-enamide] the figure was 76.3%; with `CN1C(=C(C#N)C(=O)CCl)N(C)c2ccccc21` [10-P18, 4-chloro-2-(1,3-dimethyl-2,3-dihydro-1H-1,3-benzodiazol-2-ylidene)-3-oxobutanenitrile], 89.4%; with `C=CC(=O)Nc1ccc2ccn(CCN(C)C)c2c1` [1-L21, N-{1-[2-(dimethylamino)ethyl]-1H-indol-6-yl}prop-2-enamide], 113%. In the case of `COc1ccc(C=C(C#N)C(=O)Nc2ccc(C)cc2)cc1` [9-A19, 2-cyano-3-(4-methoxyphenyl)-N-(4-methylphenyl)prop-2-enamide] it was 103%; in that of `O=C(CCl)Nc1ccc(OC(F)F)c(Cl)c1` [4-F14, 2-chloro-N-[3-chloro-4-(difluoromethoxy)phenyl]acetamide], 0.982%.

Turning to `Cc1cc(C)cc(-n2c(C)cc(C(=O)CCl)c2C)c1` [10-E04, 2-chloro-1-[1-(3,5-dimethylphenyl)-2,5-dimethyl-1H-pyrrol-3-yl]ethan-1-one], the viability at 48 h, 25 µM was found to be 19.1%. Turning to `O=C1C=CC(=O)N1CCc1ccccc1` [10-E20, 1-(2-phenylethyl)-2,5-dihydro-1H-pyrrole-2,5-dione], the viability at 48 h, 25 µM was determined as 4.04%. With `C=CC(=O)NC(C)c1ccc2c(c1)CCC2` (centres unmarked) [3-F09, N-[1-(2,3-dihydro-1H-inden-5-yl)ethyl]prop-2-enamide], the viability at 48 h, 25 µM was determined as 72.3%. In the case of `CC(NC(=O)CCl)C(=O)N1CCCCC1C` (centres unmarked) [5-M06, 2-chloro-N-[1-(2-methylpiperidin-1-yl)-1-oxopropan-2-yl]acetamide] it was 104%; in that of `O=C(CCl)NC1CCN(Cc2ccccc2)CC1` [5-E19, N-(1-benzylpiperidin-4-yl)-2-chloroacetamide hydrochloride], 1.13%. With `COC(=O)Cc1ccc(C(=O)CCl)s1` [10-L12, methyl 2-[5-(2-chloroacetyl)thiophen-2-yl]acetate] the figure was 76.1%.

Regarding `COc1ccc(-c2n[nH]cc2C=C(C#N)C(=O)Nc2ccccc2)cc1` [8-A14, 2-cyano-3-[3-(4-methoxyphenyl)-1H-pyrazol-4-yl]-N-phenylprop-2-enamide], the viability at 48 h, 25 µM amounted to 76.6%. With `N#CC(=Cc1ccc2ccccc2c1)C(=O)NC(N)=O` [9-K10, {2-cyano-2-[(naphthalen-2-yl)methylidene]acetyl}urea] the figure was 116%. With `C=CC(=O)NC1CCN(c2nc(C3CC3)cc(C(F)(F)F)n2)CC1` [1-L03, N-{1-[4-cyclopropyl-6-(trifluoromethyl)pyrimidin-2-yl]piperidin-4-yl}prop-2-enamide] the figure was 108%; with `O=C(CCl)NC(c1ccccc1)c1nccs1` (centres unmarked) [5-M13, 2-chloro-N-[phenyl(1,3-thiazol-2-yl)methyl]acetamide], 2.38%. In the case of `C=CC(=O)Nc1cnc(C2CCCC2)nc1` [1-G17, N-(2-cyclopentylpyrimidin-5-yl)prop-2-enamide] it was 33%. Regarding `CC(Cl)C(=O)NCc1ccc2cnn(C)c2c1` (centres unmarked) [7-D21, 2-chloro-N-[(1-methyl-1H-indazol-6-yl)methyl]propanamide], the viability at 48 h, 25 µM came out at 87.7%. As to `CC(C)c1ccc(C(C)NC(=O)CCl)cc1` (centres unmarked) [4-I05, 2-chloro-N-{1-[4-(propan-2-yl)phenyl]ethyl}acetamide], the viability at 48 h, 25 µM is 1.47%.

For the compound `C=CC(=O)N1CCCC(n2cc(C)cn2)C1` (centres unmarked) [3-M12, 1-[3-(4-methyl-1H-pyrazol-1-yl)piperidin-1-yl]prop-2-en-1-one], the viability at 48 h, 25 µM came out at 94.4%.

For `C=CC(=O)NCCc1ccc(S(N)(=O)=O)cc1` [2-B13, N-[2-(4-sulfamoylphenyl)ethyl]prop-2-enamide], the viability at 48 h, 25 µM is 77.8%. With `O=C(CCl)N1N=C(c2ccsc2)CC1c1cccc(F)c1` (centres unmarked) [4-C22, 2-chloro-1-[5-(3-fluorophenyl)-3-(thiophen-3-yl)-4,5-dihydro-1H-pyrazol-1-yl]ethan-1-one] the figure was 0.063%; with `COc1cc(C=C(C#N)C(=O)Nc2nccs2)cc(OC)c1O` [8-M19, 2-cyano-3-(4-hydroxy-3,5-dimethoxyphenyl)-N-(1,3-thiazol-2-yl)prop-2-enamide], 86.3%; with `C=CC(=O)NC(c1ccc(F)cc1)C1CC1` (centres unmarked) [3-H20, N-[cyclopropyl(4-fluorophenyl)methyl]prop-2-enamide], 89.2%. For the compound `Cc1nnc(C(C)NC(=O)C(C)Cl)s1` (centres unmarked) [7-D11, 2-chloro-N-[1-(5-methyl-1,3,4-thiadiazol-2-yl)ethyl]propanamide], the viability at 48 h, 25 µM turned out to be 104%. In the case of `CCN(CC)S(=O)(=O)c1cc(NC(=O)CCl)ccc1C` [4-E09, 2-chloro-N-[3-(diethylsulfamoyl)-4-methylphenyl]acetamide] it was 0.544%. With `C=CC(=O)N1CCOC(Cn2nc(C)nc2C)C1` (centres unmarked) [1-B09, 1-{2-[(3,5-dimethyl-1H-1,2,4-triazol-1-yl)methyl]morpholin-4-yl}prop-2-en-1-one] the figure was 161%; with `O=C(CCl)NC1Cc2ccccc2N(C(=O)C(F)(F)F)C1` (centres unmarked) [7-L16, 2-chloro-N-[1-(2,2,2-trifluoroacetyl)-1,2,3,4-tetrahydroquinolin-3-yl]acetamide], 0.649%. With `COCCNC(=O)C(C#N)=Cc1c(Cl)cccc1Cl` [8-O13, 2-cyano-3-(2,6-dichlorophenyl)-N-(2-methoxyethyl)prop-2-enamide] the figure was 55.9%. In the case of `CC(Cl)C(=O)Nc1ccc(N(C)C)cc1` (centres unmarked) [5-N04, 2-chloro-N-[4-(dimethylamino)phenyl]propanamide hydrochloride], the viability at 48 h, 25 µM was 99.3%. In the case of `Cc1cccc(C=C(C#N)C(=O)NC(C)C)c1` [8-J07, 2-cyano-3-(3-methylphenyl)-N-(propan-2-yl)prop-2-enamide] it was 94.3%. In the case of `CC(Cl)C(=O)NC1CCCCC1n1cccn1` (centres unmarked) [7-F17, 2-chloro-N-[2-(1H-pyrazol-1-yl)cyclohexyl]propanamide], the viability at 48 h, 25 µM amounted to 97.9%. For the compound `C=CC(=O)N1CCC(C(=O)Nc2c[nH]c(=O)c(C)c2)CC1` [3-J05, N-(5-methyl-6-oxo-1,6-dihydropyridin-3-yl)-1-(prop-2-enoyl)piperidine-4-carboxamide], the viability at 48 h, 25 µM was determined as 51.5%.

With `C=CC(=O)NCc1cccc(N2C(=O)NC3(CCCC3)C2=O)c1` [2-M11, N-[(3-{2,4-dioxo-1,3-diazaspiro[4.4]nonan-3-yl}phenyl)methyl]prop-2-enamide], the viability at 48 h, 25 µM is 89.7%.

With `C=CC(=O)Nc1ccccc1CNS(C)(=O)=O` [3-F16, N-[2-(methanesulfonamidomethyl)phenyl]prop-2-enamide], the viability at 48 h, 25 µM turned out to be 104%. With `CC(Cl)C(=O)N(C)C1CCN(c2ccccn2)CC1` (centres unmarked) [6-J20, 2-chloro-N-methyl-N-[1-(pyridin-2-yl)piperidin-4-yl]propanamide] the figure was 106%; with `Cc1cccc(NC(=O)NC(=O)CCl)c1C` [4-D21, 3-(2-chloroacetyl)-1-(2,3-dimethylphenyl)urea], 0.759%; with `C=CC(=O)NC1CCSC(C)C1` (centres unmarked) [1-J06, N-(2-methylthian-4-yl)prop-2-enamide], 78.4%. As to `O=C(CCl)N1CCCCC1c1nc(-c2ccccn2)cs1` (centres unmarked) [5-G18, 2-chloro-1-{2-[4-(pyridin-2-yl)-1,3-thiazol-2-yl]piperidin-1-yl}ethan-1-one], the viability at 48 h, 25 µM is 0.612%. With `C=CC(=O)NCc1cn(C2CCCC2)nc1C` [3-N21, N-[(1-cyclopentyl-3-methyl-1H-pyrazol-4-yl)methyl]prop-2-enamide], the viability at 48 h, 25 µM was 55.5%. As to `O=C(CCl)Cc1ccc(F)cc1Cl` [10-E19, 1-chloro-3-(2-chloro-4-fluorophenyl)propan-2-one], the viability at 48 h, 25 µM came out at 1.31%. In the case of `CC(C)NC(=O)C(C#N)=Cc1ccc2c(c1)OCCO2` [9-E11, 2-cyano-3-(2,3-dihydro-1,4-benzodioxin-6-yl)-N-(propan-2-yl)prop-2-enamide] it was 118%. In the case of `CC(Cl)C(=O)N1CC(OCc2cccc3ccccc23)C1` (centres unmarked) [7-I03, 2-chloro-1-{3-[(naphthalen-1-yl)methoxy]azetidin-1-yl}propan-1-one] it was 96.3%.

What is called viability is a read-out of living cells in per cent, often relative to untreated cells.
